Laboratory results reported in patent publication US20070293518A1, “PROLONGED IMPROVEMENT OF RENAL FUNCTION COMPRISING INFREQUENT ADMINISTRATION OF AN AA1RA” (priority 2006, published 2007).
Where “and” joins values, the source holds several entries; their conditions need not be identical. Equal entries are not always repeated. Where two headings read alike, the source gives them in different places. Marks after values point to notes of the source that are not given here.

Tests used:
[1] = system: heart failure patients with renal impairment who are treated with diuretics; test: Double-blind cross-over study in stable CHF: GFR, RPF, urine volume; assay type: in vivo, human; conditions: for GFR % Difference Between KW-3902 and Placebo / GFR Percent Change from Baseline / RPF % Difference Between KW-3902 and Placebo / RPF Percent Change from Baseline: 30 mg KW-3902 IV plus 80 mg IV furosemide
Method: A double-blind, multi-center, cross-over designed, controlled study was conducted as follows: Approximately 23 outpatient subjects were randomized. […] Subjects received at least two treatments that were at least three days apart, with a median interval between treatments of 6 days. […] Patients that received KW-3902 on the first visit received placebo on the second visit, and vice versa. Infusions of lothalamate ([…]) and para-aminohippurate were administered according to standard protocols to assess glomerular filtration rate (GFR) and renal plasma flow (RPF), respectively. Iothalamate and para-aminohippurate were administered over 180 minutes before treatment with KW-3902/placebo and 8 hours after treatment with KW-3902/placebo. Urine and plasma were collected for GFR and RPF at baseline and 2, 4, and 8 hours. The mean GFR at baseline was 61 mL/min.

[2] = system: subjects hospitalized due to acute CHF requiring intravenous diuretic therapy; test: Study in subjects hospitalized due to acute CHF requiring intravenous diuretic therapy: serum creatinine, worsening renal function; assay type: in vivo, human
Method: More than 300 subjects hospitalized due to acute CHF requiring intravenous diuretic therapy to treat fluid overload, and presenting with creatinine clearance values between 20 to 80 mL/min were identified. The subjects were randomized to receive either placebo, or 10 mg, 20 mg or 30 mg intravenous KW-3902 per day. The subjects' BNP levels, NT-Pro-BNP, serum creatinine, weight, and NYHA Class were measured.
On day 1, KW-3902 (or placebo) was co-administered with intravenous furosemide (LASIX™). The specified dose of KW-3902 (or placebo) was infused over a four hour time period. Subjects received therapy for up to three days, as required. Serum creatinine, weight, dyspnea, and worsening heart failure were assessed daily by the investigator on days 1 through 14. Worsening renal function was defined as a ≧0.3 mg/dL increase in serum creatinine.
A subgroup of subjects received a single dose of KW-3902 and LASIX or a single dose of placebo and LASIX.

[3] = Pharmacokinetic study of KW-3902, single intravenous dose, serum concentrations; assay type: in vivo; conditions: human; for clearance: read-out: CL∞ Mean (converted); for half-life: read-out: T1/2 Mean (converted); for Tmax: read-out: Tmax Median; for Vd: read-out: Vss∞ Mean
Method: Individuals received a single intravenous dose of 1 mg, 2.5 mg. 5 mg, 10 mg, 20 mg, 30 mg 40 mg, 50 mg or 60 mg KW-3902 as indicated. The serum concentrations of KW-3902 and its M1-trans metabolite were measured using routine analytical methods. Routine mathematical formulae were used to determine pharmacokinetic values.

[4] = system: patients with CHF and renal impairment; test: Double-blind placebo-controlled study in CHF patients with acute fluid overload and renal impairment: sustained worsening renal function; assay type: in vivo, human; conditions: 2.5, 15, 30 or 60 mg IV days 1 through 3; FIG. 6
Method: Worsening renal function was defined as a ≧0.3 mg/dL increase in serum creatinine.

[5] = system: subjects with congestive heart failure refractory to standard diuretic therapy; test: Double-blind placebo-controlled study in CHF patients refractory to standard diuretic therapy: creatinine clearance; assay type: in vivo, human; conditions: 30 mg intravenous infusion with current diuretic therapy; 0-24 hours; FIG. 4
Method: A double-blind placebo-controlled study was conducted as follows: 35 subjects with congestive heart failure that were refractory to standard diuretic therapy were identified. […] The patients' diuretic therapy was stopped at least 5 hours before prior to the treatment. Staring at −3 hours, urine was collected for volume and creatinine clearance measurements. […] Blood and urine samples were colleted at 0, 3, 6, 9, 12 and 24 hours following study drug administration.

[6] = serum, individual subjects of subgroup, single dose of KW-3902 and LASIX
[7] = 1 mg, single intravenous dose 1 mg, Group 1, serum
[8] = 2.5 mg, single intravenous dose 2.5 mg, Group 1 (n = 4)
[9] = 2.5 mg, single intravenous dose 2.5 mg, Group 2 (n = 8)
[10] = 5 mg, single intravenous dose 5 mg, Group 2, serum
[11] = 10 mg, single intravenous dose 10 mg, Group 2, serum
[12] = 20 mg, single intravenous dose 20 mg, Group 3, serum
[13] = 30 mg, single intravenous dose 30 mg, Group 3, serum
[14] = 40 mg, single intravenous dose 40 mg, Group 4, serum
[15] = 50 mg, single intravenous dose 50 mg, Group 4, serum
[16] = 60 mg, single intravenous dose 60 mg, Group 4, serum

AUC(0-inf) [3, 7]: 31.5 ng·h/mL | Cmax [3, 7]: 12.9 ng/mL | MRT inf [3, 7]: 2.6 h | clearance [3, 7]: 610 mL/min | half-life [3, 7]: 2.8 h | Tmax [3, 7]: 0.5 h | Vd [3, 7]: 58.9 L | AUC(0-inf) [3, 8]: 97.6 ng·h/mL | Cmax [3, 8]: 35.6 ng/mL | MRT inf [3, 8]: 8.1 h | clearance [3, 8]: 443 mL/min | half-life [3, 8]: 11.4 h | Tmax [3, 8]: 1.2 h | Vd [3, 8]: 185 L | AUC(0-inf) [3, 9]: 84 ng·h/mL | Cmax [3, 9]: 35.9 ng/mL | MRT inf [3, 9]: 4.7 h | clearance [3, 9]: 518 mL/min | half-life [3, 9]: 7.3 h | Tmax [3, 9]: 0.5 h | Vd [3, 9]: 117 L | AUC(0-inf) [3, 10]: 221 ng·h/mL | Cmax [3, 10]: 90.9 ng/mL | MRT inf [3, 10]: 5.8 h | clearance [3, 10]: 435 mL/min | half-life [3, 10]: 9.6 h | Tmax [3, 10]: 0.5 h | Vd [3, 10]: 106 L | AUC(0-inf) [3, 11]: 496 ng·h/mL | Cmax [3, 11]: 186 ng/mL | MRT inf [3, 11]: 8.7 h | clearance [3, 11]: 350 mL/min | half-life [3, 11]: 14.4 h | Tmax [3, 11]: 0.5 h | Vd [3, 11]: 161 L | AUC(0-inf) [3, 12]: 898 ng·h/mL | Cmax [3, 12]: 294 ng/mL | MRT inf [3, 12]: 11.5 h | clearance [3, 12]: 390 mL/min | half-life [3, 12]: 18 h | Tmax [3, 12]: 1.2 h | Vd [3, 12]: 244 L | AUC(0-inf) [3, 13]: 1190 ng·h/mL | Cmax [3, 13]: 457 ng/mL | MRT inf [3, 13]: 7.7 h | clearance [3, 13]: 455 mL/min | half-life [3, 13]: 14.7 h | Tmax [3, 13]: 0.6 h | Vd [3, 13]: 189 L | AUC(0-inf) [3, 14]: 1870 ng·h/mL | Cmax [3, 14]: 452 ng/mL | MRT inf [3, 14]: 9.4 h | clearance [3, 14]: 372 mL/min | half-life [3, 14]: 16.1 h | Tmax [3, 14]: 2.2 h | Vd [3, 14]: 178 L | AUC(0-inf) [3, 15]: 2120 ng·h/mL | Cmax [3, 15]: 579 ng/mL | MRT inf [3, 15]: 7.9 h | clearance [3, 15]: 427 mL/min | half-life [3, 15]: 15.5 h | Tmax [3, 15]: 1.6 h | Vd [3, 15]: 166 L | AUC(0-inf) [3, 16]: 2720 ng·h/mL | Cmax [3, 16]: 682 ng/mL | MRT inf [3, 16]: 9.2 h | clearance [3, 16]: 378 mL/min | half-life [3, 16]: 16.4 h | Tmax [3, 16]: 2.2 h | Vd [3, 16]: 176 L
Structure (SMILES): CCCn1c(=O)c2[nH]c(C34CC5CC(CC3C5)C4)nc2n(CCC)c1=O [KW-3902, 8-(3-noradamantyl)-1,3-dipropylxanthine]
GFR % Difference Between KW-3902 and Placebo ([1]; 0-2 hours): 27.3* % | GFR Percent Change from Baseline ([1]; 0-2 hours): 22.1* Percent | RPF % Difference Between KW-3902 and Placebo ([1]; 0-2 hours): 27.7* % | RPF Percent Change from Baseline ([1]; 0-2 hours): 33.3* Percent | GFR % Difference Between KW-3902 and Placebo ([1]; 0-8 hours): 23.4* % | GFR Percent Change from Baseline ([1]; 0-8 hours): 32.1* Percent | RPF % Difference Between KW-3902 and Placebo ([1]; 0-8 hours): 24.9* % | RPF Percent Change from Baseline ([1]; 0-8 hours): 47.7** Percent | GFR % Difference Between KW-3902 and Placebo ([1]; 2-4 hours): 7.6% | GFR Percent Change from Baseline ([1]; 2-4 hours): 8.5% | RPF % Difference Between KW-3902 and Placebo ([1]; 2-4 hours): 12.7% | RPF Percent Change from Baseline ([1]; 2-4 hours): 41.7% | GFR % Difference Between KW-3902 and Placebo ([1]; 4-8 hours): 30.1* % | GFR Percent Change from Baseline ([1]; 4-8 hours): 41.3* Percent | RPF % Difference Between KW-3902 and Placebo ([1]; 4-8 hours): 30.0* % | RPF Percent Change from Baseline ([1]; 4-8 hours): 55.8* Percent | Effect on GFR (in words) ([1]; FIG. 2): statistically significant increase | Effect on renal plasma flow (in words) ([1]; FIG. 3): statistically significant increase | Urine volume over 8 hours ([1]; KW-3902 plus furosemide): 2995.1 ± 1138.17 mL | Persistence of the increase in GFR noted at 8 hours ([1]; subgroup that received KW-3902 on the first visit, follow-up baseline (median 6 days), FIG. 5): persisted at the time of follow-up baseline | Change in mean serum creatinine levels (in words) ([2]; 30 mg per day IV up to three days, Day 14, FIG. 8): overall decrease in serum creatinine levels | Increase in the percentage of individuals with worsening renal failure, compared to placebo ([2]; days 2, 3, 4, 5, 6, and 7, FIG. 7): lower | Δ Creatinine ([2]; serum, Day 14 vs Day 1, individual subjects of subgroup, single dose of KW-3902 and LASIX): −0.5 mg/dL and 0 mg/dL (2×) and 0.2 mg/dL and −0.2 mg/dL and −0.1 mg/dL | Day 1 Creatinine [2, 6]: 1.7 mg/dL and 1.4 mg/dL and 1.15 mg/dL and 2.9 mg/dL and 1.6 mg/dL and 3.2 mg/dL and 1.0 mg/dL | Day 14 Creatinine [2, 6]: 1.2 mg/dL and 1.4 mg/dL and 1.3 mg/dL and 2.7 mg/dL (2×) and 1.0 mg/dL | Mean change in serum creatinine levels (in words) ([2]; single dose subgroup (30 mg KW-3902), Day 14): mean decrease in serum creatinine levels | Sustained worsening renal function (≧0.3 mg/dL increase in serum creatinine), in words [4]: improves renal function | Change in creatinine clearance from baseline (in words) [5]: improvement in renal function over time
